Measured values reported in US8901129B2, “Methods of facilitating neural cell survival using GDNF family ligand (GFL) mimetics or RET signaling pathway activators” (GeneCode AS, priority 2009, dated 2014).

Legend:
[1] = test system: MG87RET murine fibroblasts; test: Cell viability, CelTiterGlo (FIG. 8); format: cell-based; conditions: concentrations above 2 μM, 48 hours
Description: The test compounds were transferred into in 384-well culture plate using Echo acoustic dispenser (Labcyte Inc.) in 2.5-125 nl volume. Trypsinized MG87RET murine fibroblasts were seeded at 20 000 cells/ml (500 cells/well) in the presence of each compound dissolved in DMSO at the indicated concentration. After brief mixing on a horizontal shaker, the plates were centrifuged and transferred into the incubator. Two days (48 hours) after addition of cells to compounds, the viability of the cells was evaluated using CelTiterGlo reagent (Promega).

[2] = test system: GFRα1/RET-expressing cells; test: Reporter-gene luciferase activity assay, dose-response (FIG. 5); format: cell-based; conditions: 1-50 μM, 24 h
Description: (§1) Generation of stable cell lines. MG87RET murine fibroblast were plated on […] dishes and transfected with 4 μg of G4-Luc, Gal4-Elk (Baloh et al., 2000) and GFRα1 expressing plasmid (“αLUC” cells) or empty vector (“NOα” cells) containing neomycin-resistance gene in ratio 4:1:1 using Lipofectamine 2000 (Invitrogen) for DNA delivery as described by manufacturer. The following day, cells were trypsinized and plated in low density on 10-cm tissue culture dishes. Stable transformants were selected in the presence of 500-750 μg/ml geneticin (Invitrogen). Established cell lines were maintained in DMEM, 10% fetal bovine serum (FBS), 100 μg/ml Normocin (Invivogene), 2 μg/ml of puromycin, 500 μg/ml of geneticin, 15 mM HEPES, pH 7.2. Pathdetect Elk-1 system and human GFRα1-expressing plasmid (“Strat-Luc” cells) or empty vector (control cell line “NOStratis”) cells were selected and maintained in the DMEM, 10% FBS, 100 μg/ml Normocin (Invivogene), 2 μg/ml of puromycin, 500 μg/ml of G418, 2 μg/ml of blasticidin S, 15 mM HEPES, pH 7.2.
(§2) Cells were plated on 96-well plates (or 384-well) in cell density 20 000 (or 5 000 for 384-well format) cells per well in DMEM, 10% FBS, 100 μg/ml Normocin, 2 μg/ml puromycin, 500 μg/ml of G418, 15 mM HEPES, pH 7.2 one day before assay. The following day, the compounds were added to a final concentration of 1-50 μM. Structures of the compounds are shown in the description of FIG. 5, above. Cells were allowed to produce luciferase for 24 h, then lysed in 20 μl of 1×Cell culture lysis reagent (Promega) and freeze-thawed once to ensure complete lysis. Then 5 μl of the lysate was mixed (on ice) with 20 μl of luciferase assay substrate (Promega) in a well of black Isoplate (PerkinElmer). Luminescence was counted on MicroBeta 2 counter (PerkinElmer) twice. Data are presented as fold induction, where the corresponding concentration of DMSO was used as a reference.

[3] = test system: RET-expressing reporter cell line (RET alone); test: as above; format: cell-based; conditions: cells expressing RET alone; 1-50 μM, 24 h
Description: as §1, §2

[4] = test system: GFRα3/RET-expressing reporter cell line; test: as above; format: cell-based, human; conditions: GFRα3/RET cells; 1-50 μM, 24 h
Description: Full-length flag-tagged rat Gfrα1 cDNA (Leppänen et al., 2004) subcloned into in pcDNA3 (Invitrogen). Full-length human GFRα1 cDNA (Sidorova et al., unpublished) subcloned in pcDNA6 (Invitrogen). Full-length human GFRα3 cDNA (Wang et al., 2006). Full-length human RET (long isoform) (Runeberg-Roos et al., 2007) in pCR3.1 (Invitrogen). The MAPK activation detection system (Baloh et al., 2000) and PathDetect Elk-1 (Stratagene) both of which include two plasmids. First one constitutively expresses MAPK pathway specific fusion transactivator, that consists of activation domain of Elk-1 and DNA-binding domain of the yeast GAL4 protein (Gal4-Elk1). The other plasmid, Gal4-Luc, carries luciferase gene under the control of a synthetic promoter containing the yeast GAL4 binding sequences.
as §2

[5] = molecular target: T1, GFRα1/RET (Homo sapiens, UniProt P07949+P56159); test: RET phosphorylation by BT compounds, IP and Western blotting (FIG. 6A); format: cell-based; conditions: 100 μM, 15 min; MG87 RET fibroblasts transfected with GFRα1
T1 construct: Full-length human GFRα1 cDNA (Sidorova et al., unpublished) subcloned in pcDNA6; expressed in transfected cells; host or cells: MG87RET murine fibroblasts transiently transfected with GFRα1
Description: (§3) MG87RET cells were plated on 35 mm tissue culture dishes the day before the experiment. Cells were transfected with GFRα1, GFRα3 or with an vector encoding for GFP. On the day of the experiment cells were starved for 4 hours in serum-free DMEM and stimulated with the investigated compounds (structures shown in the description of FIG. 6, above) at 100 μM concentration or with 100 ng/ml of GDNF or ARTN (positive control) for 15 min. Then cells were washed once with ice-cold PBS containing 1 mM Na3VO4 and lysed on ice in 1 ml per well of RIPA-modified buffer (50 mM Tris-HCl, pH 7.4, 150 mM NaCl, 1 mM EDTA, 1% NP-40, 1% TX-100, 10% glycerol, EDTA-free protease inhibitor cocktail (Roche), 1 mM Na3VO4, 2.5 mg/ml of sodium deoxycholate, 1 mM PMSF. Ret was immunoprecipitated by anti-RET C-20 antibodies (Santa-Cruz Biotechnology, Inc.). Precipitated proteins were resolved on 7.5% SDS-PAGE and then transferred onto a nitrocellulose membrane. Membrane was blocked for 15 min at room temperature by 10% nonfat dry milk in TBS-T and probed with anti-phosphotyrosine antibodies (clone 4G10, Upstate Biotechnology) diluted 1:1000 in TBS-T containing 3% nonfat dry milk for 2 hours at room temperature. The membranes were washed 3 times for 5 min in TBS-T and incubated in the 1:3000 solution of secondary anti-mouse antibodies conjugated with HRP (DAKO) diluted in TBS-T containing 3% nonfat dry milk for 45 min at room temperature. Membranes were washed with TBS-T for 5×10 min. Stained bands were visualized with ECL reagent (Pierce) using LAS3000 imaging program. To confirm equal loading of the proteins, membranes were probed with anti-RET C-20 antibodies (1:500, Santa-Cruz Biotechnology, inc.) after stripping. We used secondary anti-goat antibodies conjugated with HRP (1:1500, DAKO) to detect C-20.

[6] = molecular target: T2, GFRα3/RET (Homo sapiens, UniProt O60609+P07949); test: RET phosphorylation by BT compounds, IP and Western blotting (FIG. 6B); format: cell-based; conditions: 100 μM, 15 min; MG87 RET fibroblasts transfected with GFRα3
T2 construct: Full-length human GFRα3 cDNA (Wang et al., 2006); expressed in transfected cells; host or cells: MG87RET murine fibroblasts transiently transfected with GFRα3
Description: as §3

T1 sequence (P56159 25-429 limits assumed, species assumed): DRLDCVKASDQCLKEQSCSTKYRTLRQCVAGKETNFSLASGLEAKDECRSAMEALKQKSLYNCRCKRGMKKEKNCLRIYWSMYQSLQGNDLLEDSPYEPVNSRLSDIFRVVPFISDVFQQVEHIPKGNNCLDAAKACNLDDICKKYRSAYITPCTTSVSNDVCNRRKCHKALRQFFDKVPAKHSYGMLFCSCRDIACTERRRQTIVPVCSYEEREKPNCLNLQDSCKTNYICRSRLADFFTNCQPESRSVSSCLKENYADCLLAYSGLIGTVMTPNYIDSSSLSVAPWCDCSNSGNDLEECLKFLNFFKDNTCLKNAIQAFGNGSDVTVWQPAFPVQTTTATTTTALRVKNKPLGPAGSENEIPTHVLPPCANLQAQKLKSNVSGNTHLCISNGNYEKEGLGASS
T1 sequence (P07949 29-1114, species assumed): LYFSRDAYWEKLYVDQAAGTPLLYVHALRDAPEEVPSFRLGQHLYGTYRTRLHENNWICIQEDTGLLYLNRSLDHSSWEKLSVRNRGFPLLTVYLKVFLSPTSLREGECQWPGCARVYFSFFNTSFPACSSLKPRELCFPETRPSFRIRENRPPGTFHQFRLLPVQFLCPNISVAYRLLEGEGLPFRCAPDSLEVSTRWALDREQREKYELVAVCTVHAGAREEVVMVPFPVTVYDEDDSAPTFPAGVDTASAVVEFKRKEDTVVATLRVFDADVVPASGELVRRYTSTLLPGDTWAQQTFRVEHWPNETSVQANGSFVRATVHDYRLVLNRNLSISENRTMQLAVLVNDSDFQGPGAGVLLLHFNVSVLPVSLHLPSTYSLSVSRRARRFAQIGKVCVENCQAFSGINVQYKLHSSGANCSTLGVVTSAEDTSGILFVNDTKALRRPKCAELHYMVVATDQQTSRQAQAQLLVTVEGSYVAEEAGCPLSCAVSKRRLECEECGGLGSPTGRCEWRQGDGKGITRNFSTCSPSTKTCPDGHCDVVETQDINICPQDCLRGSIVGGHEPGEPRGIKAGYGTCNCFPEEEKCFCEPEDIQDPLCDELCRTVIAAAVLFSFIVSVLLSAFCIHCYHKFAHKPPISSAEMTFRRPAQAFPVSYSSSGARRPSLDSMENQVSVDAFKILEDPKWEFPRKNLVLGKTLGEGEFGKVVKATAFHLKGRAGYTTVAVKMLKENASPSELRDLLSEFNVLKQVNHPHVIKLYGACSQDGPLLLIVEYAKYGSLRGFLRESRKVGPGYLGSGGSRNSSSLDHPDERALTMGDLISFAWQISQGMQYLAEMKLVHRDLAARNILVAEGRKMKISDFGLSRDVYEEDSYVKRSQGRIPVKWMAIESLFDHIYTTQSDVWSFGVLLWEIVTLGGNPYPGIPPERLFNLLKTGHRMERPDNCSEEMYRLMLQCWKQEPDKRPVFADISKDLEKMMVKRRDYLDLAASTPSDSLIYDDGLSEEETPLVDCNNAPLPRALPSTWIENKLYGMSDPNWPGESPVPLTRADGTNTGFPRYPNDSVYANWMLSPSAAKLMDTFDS
T2 sequence (O60609 32-374 limits assumed): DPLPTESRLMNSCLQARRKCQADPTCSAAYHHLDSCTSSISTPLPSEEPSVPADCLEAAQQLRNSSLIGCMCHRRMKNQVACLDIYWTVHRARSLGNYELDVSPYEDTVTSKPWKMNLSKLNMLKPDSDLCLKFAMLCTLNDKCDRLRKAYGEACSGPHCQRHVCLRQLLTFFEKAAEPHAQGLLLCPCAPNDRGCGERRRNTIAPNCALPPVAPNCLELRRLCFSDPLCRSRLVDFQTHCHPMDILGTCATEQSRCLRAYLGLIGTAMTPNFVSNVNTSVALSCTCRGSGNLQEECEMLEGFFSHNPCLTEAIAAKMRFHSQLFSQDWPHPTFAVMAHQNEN
T2 sequence (P07949 29-1114): as the sequence (P07949 29-1114, species assumed) above

Structure (SMILES)	toxicity (cell viability) [1]	induction of luciferase expression [2]	induction of luciferase expression [3]	induction of luciferase expression [4]	RET phosphorylation via GFRα1 [5]	RET phosphorylation via GFRα3 [6]
CCN(CC)CCCC(C)Nc1cc(/C=C/c2ccccc2Cl)nc2cc(Cl)ccc12 (stereo not drawn) [BT10]	significant toxicity					
COc1ccc(S(=O)(=O)N2CCC(Cc3ccccc3)CC2)cc1N1CCN(C(=O)c2cc(F)ccc2C(F)(F)F)CC1 [BT17]		in a dose-dependent manner induce luciferase expression	No significant effect	in a dose-dependent manner induce luciferase expression	likely the weaker GFRα1/RET agonists	likely the weaker GFRα3/RET agonists
